# Test results from US9723834B2, “Composition containing a pyripyropene insecticide and a base” (BASF SE, priority 2010, dated 2017).
# How the values were obtained:
# [1] = Storage stability of emulsion concentrates at 65° C. (chemical assay before and after storage); format: physicochemical; details: emulsion concentrate with addition of Stabilizer A, storage at 65° C. up to 2 weeks
# Protocol: The present invention further relates to a use of the base for increasing the stability of the pesticide of formulae I or II. The stability of the pesticide may be analyzed storage for 14 days at 65° C. An increase of the stability of the pesticide may be identified by analyzing the chemical recovery after said storage.
# Finally, all samples of the emulsion concentrates were stored at 65° C. up to 2 weeks, and chemical assay was determined before and after storage. The chemical stability results as well as initial formulation pH (measured at 1% formulation dilution in water at room temperature) were listed in Table 1.
# [2] = test system: Plutella xylostella L larvae; details: WO 2004/060065; cited from earlier work
# [3] = test system: larvae of Helicoverpa zea; details: Applied and Environmental Microbiology (1995), 61(12), 4429-35; cited from earlier work
# [4] = test system: Tenebrio molitor L; details: WO 2004/060065; cited from earlier work
Structure (SMILES),chemical stability of Insecticide A [1],insecticidal activity against Plutella xylostella L larvae [2],insecticidal activity against larvae of Helicoverpa zea [3],insecticidal activity against Tenebrio molitor L [4]
C[C@]1(COC(=O)C2CC2)[C@@H]2C[C@H](O)[C@@]3(C)Oc4cc(-c5cccnc5)oc(=O)c4[C@H](O)[C@@H]3[C@@]2(C)CC[C@@H]1OC(=O)C1CC1 [Insecticide A],dramatically improved,,,
"CC(=O)OC[C@@]1(C)[C@@H]2C[C@H](OC(C)=O)[C@@]3(C)Oc4cc(-c5cccnc5)oc(=O)c4[C@H](O)[C@@H]3[C@@]2(C)CC[C@@H]1OC(C)=O [Insecticide B, Pyripyropene A]",,has insecticidal activity,has insecticidal activity,has insecticidal activity
